Test results taken from patent US10722514B2 (FLX Bio, Inc., priority 2017, dated 2020).
Where a name gives a salt, the structure may show the parent alone.

These compounds were tested against T1, recombinant full-length USP7 (Homo sapiens, UniProt Q93009) (assay: USP7-mediated ubiquitin-rhodamine cleavage assay). Conditions: recombinant full-length USP7 62 pM; ubiquitin-rhodamine 100 nM; 30-minute incubation with compound, 1 hour reaction at room temperature; read-out: Potency: USP7 IC50.
T1 construct: A 25 μl reaction volume containing recombinant full-length USP7 (62 pM)
T1 sequence (Q93009 whole entry): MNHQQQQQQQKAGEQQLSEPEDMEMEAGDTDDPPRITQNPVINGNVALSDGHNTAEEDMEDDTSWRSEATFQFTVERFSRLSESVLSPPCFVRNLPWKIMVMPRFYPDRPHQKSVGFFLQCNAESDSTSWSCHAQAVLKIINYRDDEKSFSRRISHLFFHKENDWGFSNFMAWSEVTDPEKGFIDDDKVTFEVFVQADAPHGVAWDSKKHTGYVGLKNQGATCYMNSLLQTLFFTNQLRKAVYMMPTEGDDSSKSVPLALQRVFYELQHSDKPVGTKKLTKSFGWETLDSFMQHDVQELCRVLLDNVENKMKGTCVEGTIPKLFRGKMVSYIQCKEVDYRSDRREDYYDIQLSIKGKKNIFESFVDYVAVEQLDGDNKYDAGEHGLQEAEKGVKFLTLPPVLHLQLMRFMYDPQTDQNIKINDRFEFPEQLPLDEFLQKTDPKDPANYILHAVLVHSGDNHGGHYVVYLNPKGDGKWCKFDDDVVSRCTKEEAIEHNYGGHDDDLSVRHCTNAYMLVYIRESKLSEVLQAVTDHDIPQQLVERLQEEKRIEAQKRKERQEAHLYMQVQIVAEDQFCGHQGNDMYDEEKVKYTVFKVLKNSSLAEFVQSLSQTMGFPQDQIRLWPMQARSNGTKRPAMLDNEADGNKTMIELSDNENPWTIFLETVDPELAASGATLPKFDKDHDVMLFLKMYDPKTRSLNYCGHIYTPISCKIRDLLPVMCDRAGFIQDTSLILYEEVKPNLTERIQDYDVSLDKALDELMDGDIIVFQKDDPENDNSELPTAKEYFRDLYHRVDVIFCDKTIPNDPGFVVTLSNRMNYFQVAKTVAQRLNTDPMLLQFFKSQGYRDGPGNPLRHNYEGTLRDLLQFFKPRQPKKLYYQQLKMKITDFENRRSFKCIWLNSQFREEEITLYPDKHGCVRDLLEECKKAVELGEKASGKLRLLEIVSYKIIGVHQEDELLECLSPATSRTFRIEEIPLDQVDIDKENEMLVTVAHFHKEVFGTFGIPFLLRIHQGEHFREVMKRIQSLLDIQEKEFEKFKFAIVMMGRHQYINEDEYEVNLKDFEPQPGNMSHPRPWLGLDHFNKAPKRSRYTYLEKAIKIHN
Type: biochemical
Outline: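 Compounds are first incubated with 62 pM enzyme for 30 min at room temperature in pH 7.3 HEPES buffer containing TCEP and BSA. Cleavage of 100 nM ubiquitin-rhodamine proceeds for 1 h before an acid quench, and IC50 is derived from fluorescence.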
Work on Cc1cc(Cl)cc(-c2ccnc3cc(CN4C(=O)CCC4=O)sc23)c1O[C@@H]1CNC[C@@H]1C(F)F [Example 111, 1-((7-(5-Chloro-2-(((3S,4S)-4-(difluoromethyl)pyrrolidin-3-yl)oxy)-3-methylphenyl)thieno[3,2-b]pyridin-2-yl)methyl)pyrrolidine-2,5-dione] yielded an IC50 of under 1000 nM. Cc1cc(Cl)cc(-c2ncnc3cc(CN4C(=O)c5ccccc5C4=O)sc23)c1O[C@@H]1CNC[C@@H]1F [Example 149, 2-((4-(5-Chloro-2-(((3R,4S)-4-fluoropyrrolidin-3-yl)oxy)-3-methylphenyl)thieno[3,2-d]pyrimidin-6-yl)methyl)isoindoline-1,3-dione] gave an IC50 of under 1000 nM. Cc1cc(Cl)cc(-c2ccnc3cc(CN4C(=O)CCC4=O)sc23)c1O[C@H]1CCCNC1 [Example 211, (S)-1-((7-(5-Chloro-3-methyl-2-(piperidin-3-yloxy)phenyl)thieno[3,2-b]pyridin-2-yl)methyl)pyrrolidine-2,5-dione] showed an IC50 of under 1000 nM. Cc1cc(C(F)(F)F)cc(-c2ccnc3cc(CN4C(=O)CCC4=O)sc23)c1O[C@H]1CCCNC1 [Example 254, (S)-1-((7-(3-Methyl-2-(piperidin-3-yloxy)-5-(trifluoromethyl)phenyl)thieno[3,2-b]pyridin-2-yl)methyl)pyrrolidine-2,5-dione] gave an IC50 of under 1000 nM. Cc1cc(Cl)cc(-c2ccnc3cc(CN4C(=O)C5C(C4=O)C5(C)C)sc23)c1OC1(C)CNC1 (stereo not drawn) [Example 393, 3-[[7-[5-chloro-3-methyl-2-(3-methylazetidin-3-yl)oxy-phenyl]thieno[3,2-b]pyridin-2-yl]methyl]-6,6-dimethyl-3-azabicyclo[3.1.0]hexane-2,4-dione dihydrochloride] was tested, and the IC50 was under 1000 nM. In the case of Cc1cc(Cl)cc(-c2ncnc3cc(CN4C(=O)C5CCCCC5C4=O)sc23)c1O[C@@H]1CNC[C@@H]1F (stereo partly drawn) [Example 159, 2-((4-(5-Chloro-2-(((3R,4S)-4-fluoropyrrolidin-3-yl)oxy)-3-methylphenyl)thieno[3,2-d]pyrimidin-6-yl)methyl)hexahydro-1H-isoindole-1,3(2H)-dione], the IC50 is reported as 1000 to 10000 nM. Cc1cc(Cl)cc(-c2ccnc3ccsc23)c1OC1CCN(C)CC1 [Example 187, 7-(5-Chloro-3-methyl-2-((1-methylpiperidin-4-yl)oxy)phenyl)thieno[3,2-b]pyridine] gave an IC50 of 10000 to 30000 nM. Compound Cc1cc(Cl)cc(-c2ccnc3c(F)c(CN4C(=O)CCC4=O)sc23)c1OC1CCNCC1 [Example 242, 1-((7-(5-Chloro-3-methyl-2-(piperidin-4-yloxy)phenyl)-3-fluorothieno[3,2-b]pyridin-2-yl)methyl)pyrrolidine-2,5-dione] has an IC50 of under 1000 nM. Compound CCO[C@H]1CNC[C@H]1Oc1c(C)cc(Cl)cc1-c1ccnc2cc(CO)sc12 [Example 73, (7-(5-Chloro-2-(((3R,4S)-4-ethoxypyrrolidin-3-yl)oxy)-3-methylphenyl)thieno[3,2-b]pyridin-2-yl)methanol] has an IC50 of 10000 to 30000 nM. Work on Cc1cc(Cl)cc(-c2ccnc3cc(CN4C(=O)c5cccnc5C4=O)sc23)c1O[C@H]1CCCNC1 [Example 334, 6-[[7-[5-chloro-3-methyl-2-[[(3S)-3-piperidyl]oxy]phenyl]thieno[3,2-b]pyridin-2-yl]methyl]pyrrolo[3,4-b]pyridine-5,7-dione; 2,2,2-trifluoroacetic acid] yielded an IC50 of under 1000 nM. CCN1C[C@H](F)[C@H](Oc2c(C)cc(Cl)cc2-c2ccnc3cc(CN4C(=O)C5CC5C4=O)sc23)C1 (stereo partly drawn) [Example 310, 3-[[7-[5-chloro-2-[(3R,4S)-1-ethyl-4-fluoro-pyrrolidin-3-yl]oxy-3-methyl-phenyl]thieno[3,2-b]pyridin-2-yl]methyl]-3-azabicyclo[3.1.0]hexane-2,4-dione] showed an IC50 of under 1000 nM. Cc1cc(Cl)cc(-c2ccnc3cc(CN4C(=O)C5C(C4=O)C5(C)C)sc23)c1O[C@@H]1CCNC[C@@H]1F (stereo partly drawn) [Example 391, 3-[[7-[5-chloro-2-[[(3S,4R)-3-fluoro-4-piperidyl]oxy]-3-methyl-phenyl]thieno[3,2-b]pyridin-2-yl]methyl]-6,6-dimethyl-3-azabicyclo[3.1.0]hexane-2,4-dione; 2,2,2-trifluoroacetic acid] showed an IC50 of under 1000 nM. In the case of Cc1cc(Cl)cc(-c2ccnc3cc(CN4C(=O)CCNC4=O)sc23)c1OC1CCNCC1 [Example 222, 3-((7-(5-Chloro-3-methyl-2-(piperidin-4-yloxy)phenyl)thieno[3,2-b]pyridin-2-yl)methyl)dihydropyrimidine-2,4(1H,3H)-dione], the IC50 is reported as under 1000 nM. With Cc1cc(Cl)cc(-c2ccnc3cc(CN4C(=O)C5C(C4=O)C5(C)C)sc23)c1OC1CNCC1(C)F (stereo not drawn) [Example 372, 3-[[7-[5-chloro-2-(4-fluoro-4-methyl-pyrrolidin-3-yl)oxy-3-methyl-phenyl]thieno[3,2-b]pyridin-2-yl]methyl]-6,6-dimethyl-3-azabicyclo[3.1.0]hexane-2,4-dione dihydrochloride] the IC50 was under 1000 nM. For Cc1cc(Cl)cc(-c2ccnc3cc(CN4C(=O)C5CC5C4=O)sc23)c1O[C@@H]1CNC[C@@H]1F (stereo partly drawn) [Example 300, 3-[[7-[5-chloro-2-[(3R,4S)-4-fluoropyrrolidin-3-yl]oxy-3-methyl-phenyl]thieno[3,2-b]pyridin-2-yl]methyl]-3-azabicyclo[3.1.0]hexane-2,4-dione], the IC50 was under 1000 nM.

Same assay, conditions: recombinant full-length USP7 62 pM; ubiquitin-rhodamine 100 nM; 30-minute incubation, 1 hour reaction at room temperature; read-out: Potency (USP7 IC50)
Cc1cc(Cl)cc(-c2ccnc3cc(Cn4c(=O)ccn(CC(F)(F)F)c4=O)sc23)c1O[C@@H]1C[C@@H]2NCCO[C@H]2C1 [Example 695, 3-[[7-[2-[[(4aS,6R,7aS)-2,3,4,4a,5,6,7,7a-octahydrocyclopenta[b][1,4]oxazin-6-yl]oxy]-5-chloro-3-methyl-phenyl]thieno[3,2-b]pyridin-2-yl]methyl]-1-(2,2,2-trifluoroethyl)pyrimidine-2,4-dione] gave an IC50 of under 1000 nM.

Same assay, conditions: recombinant full-length USP7 62 pM; ubiquitin-rhodamine 100 nM; 30-minute pre-incubation, 1 hour reaction at room temperature; read-out: Potency (USP7 IC50)
Work on Cc1cc(Cl)cc(-c2ccnc3cc(Cn4c(=O)ccn(CC(F)(F)F)c4=O)sc23)c1OC1CC2CNC1C2 (stereo not drawn) [Example 540, 3-[[7-[2-(3-azabicyclo[2.2.1]heptan-5-yloxy)-5-chloro-3-methyl-phenyl]thieno[3,2-b]pyridin-2-yl]methyl]-1-(2,2,2-trifluoroethyl)pyrimidine-2,4-dione] yielded an IC50 of under 1000 nM. For Cc1cc(Cl)cc(-c2ccnc3cc(Cn4c(=O)ccn(C)c4=O)sc23)c1O[C@H]1CCNC[C@H]1C [Example 453], the IC50 was under 1000 nM. With Cc1cc(Cl)cc(-c2ccnc3cc(Cn4c(=O)ccn(C(C)C)c4=O)sc23)c1O[C@@H]1CNC[C@@H]1F [Example 451, 3-[[7-[5-chloro-2-[(3R,4S)-4-fluoropyrrolidin-3-yl]oxy-3-methyl-phenyl]thieno[3,2-b]pyridin-2-yl]methyl]-1-isopropyl-pyrimidine-2,4-dione] the IC50 was under 1000 nM. For Cc1cc(Cl)cc(-c2ncnc3cc(Cn4c(=O)ccn(C(C)C)c4=O)sc23)c1OC1CC(N)C1 (stereo not drawn) [Example 541, 3-[[4-[2-(3-aminocyclobutoxy)-5-chloro-3-methyl-phenyl]thieno[3,2-d]pyrimidin-6-yl]methyl]-1-isopropyl-pyrimidine-2,4-dione; 2,2,2-trifluoroacetic acid], the IC50 was under 1000 nM. Work on Cc1cc(Cl)cc(-c2ccnc3cc(Cn4c(=O)c(C(F)(F)F)cn(C)c4=O)sc23)c1O[C@H]1CCCNC1 [Example 581, 3-[[7-[5-chloro-3-methyl-2-[[(3S)-3-piperidyl]oxy]phenyl]thieno[3,2-b]pyridin-2-yl]methyl]-1-methyl-5-(trifluoromethyl)pyrimidine-2,4-dione; 2,2,2-trifluoroacetic acid] yielded an IC50 of under 1000 nM. Cc1cc(Cl)cc(-c2ccnc3cc(Cn4c(=O)ccn(CC(F)(F)F)c4=O)sc23)c1OC1CCNCC12CC2 (stereo not drawn) [Example 617, 3-[[7-[2-(5-azaspiro[2.5]octan-8-yloxy)-5-chloro-3-methyl-phenyl]thieno[3,2-b]pyridin-2-yl]methyl]-1-(2,2,2-trifluoroethyl)pyrimidine-2,4-dione; 2,2,2-trifluoroacetic acid] was tested, and the IC50 was under 1000 nM. Cc1cc(Cl)cc(-c2ccnc3cc(Cn4c(=O)ccn(CC(F)(F)F)c4=O)sc23)c1OC1CC(N2CCC[C@H]2CO)C1 (stereo partly drawn) [Example 624, 3-[[7-[5-chloro-2-[3-[(2S)-2-(hydroxymethyl)pyrrolidin-1-yl]cyclobutoxy]-3-methyl-phenyl]thieno[3,2-b]pyridin-2-yl]methyl]-1-(2,2,2-trifluoroethyl)pyrimidine-2,4-dione dihydrochloride] showed an IC50 of under 1000 nM. Compound Cc1cc(Cl)cc(-c2ccnc3cc(Cn4c(=O)ccn(CCC(F)(F)F)c4=O)sc23)c1O[C@H]1CCCNC1 [Example 583, 3-[[7-[5-chloro-3-methyl-2-[[(3S)-3-piperidyl]oxy]phenyl]thieno[3,2-b]pyridin-2-yl]methyl]-1-(3,3,3-trifluoropropyl)pyrimidine-2,4-dione] has an IC50 of under 1000 nM. CCn1ccc(=O)n(Cc2cc3nccc(-c4cc(Cl)cc(C)c4O[C@@H]4CNC[C@@H]4F)c3s2)c1=O [Example 452, 3-[[7-[5-chloro-2-[(3R,4S)-4-fluoropyrrolidin-3-yl]oxy-3-methyl-phenyl]thieno[3,2-b]pyridin-2-yl]methyl]-1-ethyl-pyrimidine-2,4-dione] was tested, and the IC50 was under 1000 nM. Work on CC[C@@H]1C[C@H](Oc2c(C)cc(Cl)cc2-c2ccnc3cc(Cn4c(=O)ccn(C)c4=O)sc23)CCN1 [Example 611, 3-[[7-[5-chloro-2-[[(2R,4R)-2-ethyl-4-piperidyl]oxy]-3-methyl-phenyl]thieno[3,2-b]pyridin-2-yl]methyl]-1-methyl-pyrimidine-2,4-dione] yielded an IC50 of under 1000 nM. Work on Cc1cc(Cl)cc(-c2ccnc3cc(Cn4c(=O)ccn(CC(F)(F)F)c4=O)sc23)c1OC1CC2CC1CN2 (stereo not drawn) [Example 577, 3-[[7-[2-(2-azabicyclo[2.2.1]heptan-5-yloxy)-5-chloro-3-methyl-phenyl]thieno[3,2-b]pyridin-2-yl]methyl]-1-(2,2,2-trifluoroethyl)pyrimidine-2,4-dione; 2,2,2-trifluoroacetic acid] yielded an IC50 of under 1000 nM.
